Data reported in US20230095520A1, “PHARMACEUTICAL COMPOSITION FOR PREVENTING OR TREATING CANCER COMPRISING AZOLE DERIVATIVES OR PHARMACEUTICALLY ACCEPTABLE SALT THEREOF” (Yungjin Pharm. Co., Ltd., priority 2020, published 2023).

Tested on: MV-4-11 cells
Assay: MV-4-11 cell proliferation inhibition (CCK-8)
Format: cell-based
Conditions: Homo sapiens, 72 hours; for inhibition at 0.1 µM: MV4-11, MV-4-11, compound concentration 100 nM, read-out: Inhibition rate (%); for IC50: MV4-11, MV-4-11 proliferation
Experimental: MV-4-11 cells are one of the acute myeloid leukemia cells with a Fms-like tyrosine kinase (FLT3) gene mutation, and these cells are used to test inhibition of proliferation and survival of leukemia cells.
MV-4-11 cells cultured in a 96-well cell culture plate were treated with the compound of the present invention and cultured for 72 hours. Thereafter, the antiproliferative effect of the compound was assayed by the CCK-8 method using a tetrazolium salt.

Row | IC50 [nM] | SMILES | inhibition at 0.1 µM [%]
1 | – | C=CC(=O)Nc1ccc(-c2cccc(C(C)C(=O)Nc3ncc(C)s3)c2)cn1 (stereo not drawn) [Compound 1, N-(5-(3-(1-((5-methylthiazol-2-yl)amino)-1-oxopropan-2-yl)phenyl)pyridin-2-yl)acrylamide] | 80
2 | 50.8 | C=CC(=O)Nc1ccc(-c2cccc(C(C)C(=O)Nc3ncc(CC)s3)c2)cn1 (stereo not drawn) [Compound 4, N-(5-(3-(1-((5-ethylthiazol-2-yl)amino)-1-oxopropan-2-yl)phenyl)pyridin-2yl)acrylamide] | 100
3 | – | CCc1cnc(NC(=O)[C@@H](C)c2cccc(-c3ccc(NC(=O)/C=C/CN(C)C)nc3)c2)s1 [Compound 17, (S,E)-4-(dimethylamino)-N-(5-(3-(1-((5-ethylthiazol-2-yl)amino)-1-oxopropan-2-yl)phenyl)pyridin-2-yl)but-2-enamide] | 100
4 | – | C=CC(=O)Nc1ccc(-c2cccc([C@H](C)C(=O)Nc3ncc(C#N)s3)c2)cn1 [Compound 18, (S)-N-(5-(3-(1-((5-cyanothiazol-2-yl)amino)-1-oxopropan-2-yl)phenyl)pyridin-2-yl)acrylamide] | 67
5 | – | C=CC(=O)Nc1ccc(-c2cccc([C@H](CC)C(=O)Nc3ncc(CC)s3)c2)cn1 [Compound 19, (S)-2-(3-(6-acrylamidopyridin-3-yl)phenyl)-N-(5-ethylthiazol-2-yl)butanamide] | 75
6 | – | C[C@H](C(=O)Nc1ncc(C#N)s1)c1cccc(-c2ccc(NC(=O)/C=C/CN(C)C)nc2)c1 [Compound 21, (S,E)-N-(5-(3-(1-((5-cyanothiazol-2-yl)amino)-1-oxopropan-2-yl)phenyl)pyridin-2-yl)-4-(dimethylamino)but-2-enamide] | 84
7 | – | C=CC(=O)Nc1cnc(-c2cccc([C@H](C)C(=O)Nc3ncc(C#N)s3)c2)cn1 [Compound 25, (S)-N-(5-(3-(1-((5-cyanothiazol-2-yl)amino)-1-oxopropan-2-yl)phenyl)pyrazin-2-yl)acrylamide] | 100
8 | – | C=CC(=O)Nc1ccc(-c2cccc([C@H](C)C(=O)Nc3ncc(CC)s3)c2)cc1C#N [Compound 30, (S)-N-(3-cyano-3′-(1-((5-ethylthiazol-2-yl)amino)-1-oxopropan-2-yl)-[1,1′-biphenyl]-4-yl)acrylamide] | 96
9 | – | C=CC(=O)Nc1ccc(-c2cccc([C@H](C)C(=O)Nc3ncc(CC)s3)c2)c(F)n1 [Compound 31, (S)-N-(5-(3-(1-((5-ethylthiazol-2-yl)amino)-1-oxopropan-2-yl)phenyl)-6-fluoropyridin-2-yl)acrylamide] | 98
10 | – | C=CC(=O)Nc1ccc(-c2cccc([C@H](C)C(=O)Nc3ncc(C#N)s3)c2)nn1 [Compound 32, (S)-N-(6-(3-(1-((5-cyanothiazol-2-yl)amino)-1-oxopropan-2-yl)phenyl)pyridazin-3-yl)acrylamide] | 100
11 | – | C=CC(=O)Nc1ncc(-c2cccc([C@H](C)C(=O)Nc3ncc(C#N)s3)c2)cc1F [Compound 33, (S)-N-(5-(3-(1-((5-cyanothiazol-2-yl)amino)-1-oxopropan-2-yl)phenyl)-3-fluoropyridin-2-yl)acrylamide] | 100
12 | – | C=CC(=O)Nc1ncc(-c2cccc([C@H](C)C(=O)Nc3ncc(C#N)s3)c2)nc1C [Compound 34, (S)-N-(5-(3-(1-((5-cyanothiazol-2-yl)amino)-1-oxopropan-2-yl)phenyl)-3-methylpyrazin-2-yl)acrylamide] | 80
13 | – | C=CC(=O)Nc1ccc(-c2cccc([C@H](C)C(=O)Nc3ncc(C(C)C)s3)c2)cn1 [Compound 35, (S)-N-(5-(3-(1-((5-isopropylthiazol-2-yl)amino)-1-oxopropan-2-yl)phenyl)pyridin-2-yl)acrylamide] | 98
14 | – | C=CC(=O)Nc1cnc(-c2cccc([C@H](C)C(=O)Nc3ncc(C(C)C)s3)c2)cn1 [Compound 36, (S)-N-(5-(3-(1-((5-isopropylthiazol-2-yl)amino)-1-oxopropan-2-yl)phenyl)pyrazin-2-yl)acrylamide] | 100
15 | – | C=CC(=O)Nc1ccc(-c2cccc([C@H](C)C(=O)Nc3ncc(C(F)(F)F)s3)c2)cn1 [Compound 38, (S)-N-(5-(3-(1-oxo-1-((5-(trifluoromethyl)thiazol-2-yl)amino)propan-2-yl)phenyl)pyridin-2-yl)acrylamide] | 98
16 | 30 | C=CC(=O)Nc1ccc(-c2cccc([C@H](C)C(=O)Nc3ncc(C(F)(F)F)s3)c2)nn1 [Compound 39, (S)-N-(6-(3-(1-oxo-1-((5-(trifluoromethyl)thiazol-2-yl)amino)propan-2-yl)phenyl)pyridazin-3-yl)acrylamide] | 100
17 | 27.8 | C=CC(=O)Nc1ccc(-c2cccc([C@H](C)C(=O)Nc3ncc(C(C)C)s3)c2)nn1 [Compound 40, (S)-N-(6-(3-(1-((5-isopropylthiazol-2-yl)amino)-1-oxopropan-2-yl)phenyl)pyridazin-3-yl)acrylamide] | 100
18 | – | C=CC(=O)Nc1ccc(-c2cncc(C(C)C(=O)Nc3ncc(C#N)s3)c2)cn1 (stereo not drawn) [Compound 41, N-(5′-(1-((5-cyanothiazol-2-yl)amino)-1-oxopropan-2-yl)-[3,3′-bipyridin]-6-yl)acrylamide] | 100
19 | – | C=CC(=O)Nc1ccc(-c2cc(C(C)C(=O)Nc3ncc(C#N)s3)ccn2)cn1 (stereo not drawn) [Compound 42, N-(4-(1-((5-cyanothiazol-2-yl)amino)-1-oxopropan-2-yl)-[2,3′-bipyridin]-6′-yl)acrylamide] | 100
20 | 24.6 | C=CC(=O)Nc1cnc(-c2cncc(C(C)C(=O)Nc3ncc(C4CC4)s3)c2)cn1 (stereo not drawn) [Compound 43, N-(5-(5-(1-((5-cyclopropylthiazol-2-yl)amino)-1-oxopropan-2-yl)pyridin-3-yl)pyrazin-2-yl)acrylamide] | 100
21 | 54.4 | C=CC(=O)Nc1cnc(-c2cncc(C(C)C(=O)Nc3ncc(C#N)s3)c2)cn1 (stereo not drawn) [Compound 44, N-(5-(5-(1-((5-cyanothiazol-2-yl)amino)-1-oxopropan-2-yl)pyridin-3-yl)pyrazin-2-yl)acrylamide] | 100
22 | 9.1 | C=CC(=O)Nc1cnc(-c2cncc(C(C)C(=O)Nc3ncc(CC)s3)c2)cn1 (stereo not drawn) [Compound 46, N-(5-(5-(1-((5-ethylthiazol-2-yl)amino)-1-oxopropan-2-yl)pyridin-3-yl)pyrazin-2-yl)acrylamide] | 100
23 | 12.2 | C=CC(=O)Nc1cnc(-c2cncc(C(C)C(=O)Nc3ncc(C(C)C)s3)c2)cn1 (stereo not drawn) [Compound 47, N-(5-(5-(1-((5-isopropylthiazol-2-yl)amino)-1-oxopropan-2-yl)pyridin-3-yl)pyrazin-2-yl)acrylamide] | 100
24 | – | C=CC(=O)Nc1cnc(-c2cncc(C(C)C(=O)Nc3ncc(C(C)=O)s3)c2)cn1 (stereo not drawn) [Compound 48, N-(5-(5-(1-((5-acetylthiazol-2-yl)amino)-1-oxopropan-2-yl)pyridin-3-yl)pyrazin-2-yl)acrylamide] | 100
25 | 18.7 | C=CC(=O)Nc1ccc(-c2cncc(C(C)C(=O)Nc3ncc(C(F)(F)F)s3)c2)nn1 (stereo not drawn) [Compound 49, N-(6-(5-(1-oxo-1-((5-(trifluoromethyl)thiazol-2-yl)amino)propan-2-yl)pyridin-3-yl)pyridazin-3-yl)acrylamide] | 100
